In one series the test system is Calu-3 (lung cancer). Briefly: In vitro cytotoxicity of camptothecin analogues (CellTiter-Glo). It is filed as cell-based. As to conditions: Homo sapiens, Calu-3, 96 h, read-out: pIC50 Calu-3 (converted). The protocol: (§1) In vitro potency was assessed on multiple cancer cell lines: SK-BR-3 (breast cancer), SKOV-3 (ovarian cancer), Calu-3 (lung cancer), ZR-75-1 (breast cancer) and MDA-MB-468 (breast cancer). Serial dilutions of camptothecin analogues were prepared in RPMI 1640+10% FBS, and 20 μL of each dilution was added to 384-well plates. Cells cultured in log-phase growth were detached by brief incubation in 0.05% Trypsin and resuspended in respective culturing media at 20,000 cells/mL (with the exception of ZR-75 cells, which were resuspended at 10,000 cells/mL). 50 μL of cell suspension was then added to the plates containing test articles. Cells were incubated with test articles for 4 d at 37° C. (with the exception of ZR-75 cells, which were incubated for 5 d). Growth inhibition was assessed by CellTiter-Glo® (Promega Corporation, Madison, WI) and luminescence was measured on a plate reader. IC50 values were determined by GraphPad Prism (GraphPad Software, San Diego CA).

The test system of series [1] is MDA-MB-468 (breast cancer). Described as above. Type of series: cell-based. As to conditions: Homo sapiens, MDA-MB-468, 96 h, read-out: pIC50 MDA-MB-468 (converted). As to the method: as §1
The test system of a further series is SK-BR-3 (breast cancer). Described as above. It is filed as cell-based. As to conditions: Homo sapiens, SK-BR-3, 96 h, read-out: pIC50 SKBR-3 (converted). As to the method: as §1
The next series relates to SKOV-3 (ovarian cancer). The series is described as above. It is filed as cell-based. As to conditions: Homo sapiens, SK-OV-3, 96 h, read-out: pIC50 SKOV-3 (converted). As to the method:
as §1

The next series concerns ZR-75-1 (breast cancer). Described as above. Type of series: cell-based. As to conditions: Homo sapiens, ZR-75-1, 120 h, read-out: pIC50 ZR-75 (converted). As to the method:
as §1

Another series deals with hepatocellular carcinoma. As to conditions: adults with HCC; cited from earlier work.

For the molecule `CC[C@@]1(O)C(=O)OCc2c1cc1n(c2=O)Cc2c-1nc1cc(F)c(C)cc1c2CN1CCSCC1CO` (stereo partly drawn) [Compound 114, (4S)-4-ethyl-8-fluoro-4-hydroxy-11-((3-(hydroxymethyl)thiomorpholino)methyl)-9-methyl-1,12-dihydro-14H-pyrano[3′,4′:6,7]indolizino[1,2-b]quinoline-3,14(4H)-dione], the IC50 in the series on Calu-3 (lung cancer) is 0.0933 nM; in series [1] it was 0.417 nM; in the series on SK-BR-3 (breast cancer), 0.107 nM; in the series with SKOV-3 (ovarian cancer) it was 0.178 nM.

As to `CC[C@@]1(O)C(=O)OCc2c1cc1n(c2=O)Cc2c-1nc1cc(F)c(C)cc1c2CN1CCO[C@@H](CO)C1` [Compound 113, (S)-4-ethyl-8-fluoro-4-hydroxy-11-(((R)-2-(hydroxymethyl)morpholino)methyl)-9-methyl-1,12-dihydro-14H-pyrano[3′,4′:6,7]indolizino[1,2-b]quinoline-3,14(4H)-dione], the IC50 in the series on Calu-3 (lung cancer) is 3.02 nM; in series [1], 3.39 nM; with SK-BR-3 (breast cancer), 1.95 nM; in the series with SKOV-3 (ovarian cancer), 4.27 nM; in the series on ZR-75-1 (breast cancer) it was 2.19 nM.

“codrituzumab: "Codrituzumab, also known as GC33 or RG-7686"; antibody targeting GPC3 tested clinically "as a bivalent IgG"; "reference antibody codrituzumab"”: in the series on hepatocellular carcinoma, the “efficacy in clinical trials, in words” value is given as “limited efficacy” and the “safety in clinical trials, in words” value was “good safety profile”.

For the molecule `CC[C@@]1(O)C(=O)OCc2c1cc1n(c2=O)Cc2c-1nc1cc(F)c(C)cc1c2CNS(=O)(=O)c1ccccc1` [Compound 125, (S)-N-((4-ethyl-8-fluoro-4-hydroxy-9-methyl-3,14-dioxo-3,4,12,14-tetrahydro-1H-pyrano[3′,4′:6,7]indolizino[1,2-b]quinolin-11-yl)methyl)benzenesulfonamide], the IC50 in the series with Calu-3 (lung cancer) was 2.82 nM; in series [1], 3.8 nM; with SK-BR-3 (breast cancer), 1.32 nM; in the series on SKOV-3 (ovarian cancer) it was 7.08 nM; with ZR-75-1 (breast cancer) it was 1.32 nM.

Consider `CC[C@@]1(O)C(=O)OCc2c1cc1n(c2=O)Cc2c-1nc1cc(F)c(C)cc1c2CN1C2CCC1(CO)CC2` [Compound 121], for which the IC50 with Calu-3 (lung cancer) was 0.145 nM; in series [1], 0.269 nM; with SK-BR-3 (breast cancer) it was 0.148 nM; in the series with SKOV-3 (ovarian cancer) it was 0.195 nM.

With `CC[C@@]1(O)C(=O)OCc2c1cc1n(c2=O)Cc2c-1nc1cc(F)c(C)cc1c2CNS(=O)(=O)c1ccc(N)cc1` [Compound 127, (S)-4-amino-N-((4-ethyl-8-fluoro-4-hydroxy-9-methyl-3,14-dioxo-3,4,12,14-tetrahydro-1H-pyrano[3′,4′:6,7]indolizino[1,2-b]quinolin-11-yl)methyl)benzenesulfonamide], the IC50 was 9.33 nM in the series on Calu-3 (lung cancer); 3.8 nM in series [1]; 3.31 nM with SK-BR-3 (breast cancer); 14.5 nM in the series on SKOV-3 (ovarian cancer); 5.25 nM in the series on ZR-75-1 (breast cancer).

Take `CC[C@@]1(O)C(=O)OCc2c1cc1n(c2=O)Cc2c-1nc1cc(F)c(OC)cc1c2CNC(=O)NCc1ccc(N)cc1` [Compound 135, (S)-1-(4-aminobenzyl)-3-((4-ethyl-8-fluoro-4-hydroxy-9-methoxy-3,14-dioxo-3,4,12,14-tetrahydro-1H-pyrano[3′,4′:6,7]indolizino[1,2-b]quinolin-11-yl)methyl)urea]: the IC50 in series [1] was 10.7 nM; in the series with SK-BR-3 (breast cancer) it was 12.3 nM; with ZR-75-1 (breast cancer), 13.2 nM.

For `CC[C@@]1(O)C(=O)OCc2c1cc1n(c2=O)Cc2c-1nc1cc(F)c(C)cc1c2CN1CCN(c2ccc(N)cc2)CC1` [Compound 108, (S)-11-((4-(4-aminophenyl)piperazin-1-yl)methyl)-4-ethyl-8-fluoro-4-hydroxy-9-methyl-1,12-dihydro-14H-pyrano[3′,4′:6,7]indolizino[1,2-b]quinoline-3,14(4H)-dione], the IC50 with Calu-3 (lung cancer) is 40.7 nM; in series [1], 47.9 nM; in the series with SK-BR-3 (breast cancer) it was 29.5 nM; with SKOV-3 (ovarian cancer), 55 nM; in the series on ZR-75-1 (breast cancer) it was 18.6 nM.

Take `CC[C@@]1(O)C(=O)OCc2c1cc1n(c2=O)Cc2c-1nc1cc(F)c(C)cc1c2CNS(C)(=O)=O` [Compound 122, (S)-N-((4-ethyl-8-fluoro-4-hydroxy-9-methyl-3,14-dioxo-3,4,12,14-tetrahydro-1H-pyrano[3′,4′:6,7]indolizino[1,2-b]quinolin-11-yl)methyl)methanesulfonamide]: the IC50 was 3.72 nM with Calu-3 (lung cancer); 1.1 nM in series [1]; 1.12 nM in the series on SK-BR-3 (breast cancer); 9.12 nM in the series with SKOV-3 (ovarian cancer); 1.29 nM in the series with ZR-75-1 (breast cancer).

With `CC[C@@]1(O)C(=O)OCc2c1cc1n(c2=O)Cc2c-1nc1cc(F)c(N)cc1c2CN=[N+]=[N-]` [Compound 152, (S)-9-amino-11-(azidomethyl)-4-ethyl-8-fluoro-4-hydroxy-1,12-dihydro-14H-pyrano[3′,4′:6,7]indolizino[1,2-b]quinoline-3,14(4H)-dione], the IC50 in the series with Calu-3 (lung cancer) is 1.48 nM; in series [1], 5.01 nM; in the series on SK-BR-3 (breast cancer) it was 3.24 nM; in the series on SKOV-3 (ovarian cancer) it was 2.88 nM.

Consider `CC[C@@]1(O)C(=O)OCc2c1cc1n(c2=O)Cc2c-1nc1cc(F)c(C)cc1c2CNS(N)(=O)=O` [Compound 131, (S)-((4-ethyl-8-fluoro-4-hydroxy-9-methyl-3,14-dioxo-3,4,12,14-tetrahydro-1H-pyrano[3′,4′:6,7]indolizino[1,2-b]quinolin-11-yl)methyl)sulfamide], for which the IC50 is 9.12 nM in the series on Calu-3 (lung cancer), 9.12 nM in series [1], 1.05 nM in the series on SK-BR-3 (breast cancer) and 0.955 nM with ZR-75-1 (breast cancer).

For the molecule `CC[C@@]1(O)C(=O)OCc2c1cc1n(c2=O)Cc2c-1nc1cc(F)c(OC)cc1c2CNS(=O)(=O)c1ccc(N)cc1` [Compound 128, (S)-4-amino-N-((4-ethyl-8-fluoro-4-hydroxy-9-methoxy-3,14-dioxo-3,4,12,14-tetrahydro-1H-pyrano[3′,4′:6,7]indolizino[1,2-b]quinolin-11-yl)methyl)benzenesulfonamide], the IC50 in series [1] was 8.32 nM; in the series on SK-BR-3 (breast cancer), 5.25 nM; in the series on SKOV-3 (ovarian cancer), 18.2 nM; in the series with ZR-75-1 (breast cancer), 4.27 nM.

(Values after patent publication US20250295799A1, “ANTIBODY-DRUG CONJUGATES TARGETING GLYPICAN-3 AND METHODS OF USE” (Zymeworks BC Inc., priority 2022, published 2025).)
